Experimental data from patent US5621102A, “Process for preparing enantiomerically pure xanthine derivatives” (Cell Therapeutics, Inc., priority 1995, dated 1997).

Experiments:
[1] = tested on: hair follicles of nu/nu mice; assay: nude mouse hair studies, topical application; assay type: in vivo; conditions: second experiment; 60% ETOH, 10% water, 30% PEG base, twice daily, 34 days
Description: This example illustrates nude mouse hair studies involving topical application of CT1501R. Six to eight week old, female, nu/nu mice from Charles River Laboratories were housed at Biosupport Research Support Services (Seattle, Wash.) in autoclaved micro isolator units with hyperchlorinated autoclaved water, irradiated rodent chow and kept under a laminar flow hood. Caging was changed weekly, and water was changed twice weekly. The mice were acclimated for 5 days before beginning each study.
The first topical formulation was prepared by adding CT1501R to a heated hydrophilic ointment (USP) at a 1% concentration, and allowed to solidify.
Nude mice were painted twice daily for 16 days with the first topical formulation of CT1501R on the left flank and another compound in the same base on the right flank with sterile applicators. Mice were handled under the laminar flow hood with applicator wearing face mask and sterile gloves. After 16 days, one mouse was sacrificed by cervical dislocation and skin biopsies were taken of the treated areas of the shoulder/flank and from the non-treated area of the dorsal pelvis (rump). Specimens were placed in 10% buffered formalin solution. Biopsies were sent to a veterinary dermopathologist for histopathology. Six weeks following treatment, a second mouse was euthanatized and biopsied the same as the first. Samples were sent for histopathology.
In a second experiment, topical application of CT1501R was performed along with a commercial topical minoxidil preparation (Rogaine®, Upjohn) that is approved for a hair growth indication. Five to six week old, female, nu/nu mice from Bantin and Kingman Universal were housed at Biosupport Research Support Services (Seattle, Wash.) in autoclaved micro isolator units with hyper chlorinated autoclaved water, irradiated rodent chow and kept under a laminar flow hood. Caging was changed weekly, and water was changed twice weekly. Mice were acclimated for 7 days before beginning study, […]

[2] = tested on: PBMC (peripheral blood mononuclear cells); assay: two-way mixed lymphocyte reaction (MLR); assay type: cell-based, human
Description: Various in vitro assays can be used to measure effects of the inventive compounds to module immune activity and have antitumor activity using a variety of cellular types. For example, a mixed lymphocyte reaction (MLR) provides a valuable screening tool to determine biological activity of each inventive compound. In the MLR, PBMCs (peripheral blood mononuclear cells) are obtained by drawing whole blood from healthy volunteers in a heparinized container and diluted with an equal volume of hanks balanced salt solution (HBSS). This mixture is layered on a sucrose density gradient, such as a Ficoll-Hypaque® gradient (specific gravity 1.08), and centrifuged at 1000×g for 25 minutes at room temperature or cooler. PBMC are obtained from a band at a plasma-Ficoll interface, separated and washed at least twice in a saline solution, such as HBSS. Contaminating red cells are lysed, such as by ACK lysis for 10 min at 37° C., and the PBMCs are washed twice in HBSS. The pellet of purified PBMCs is resuspended in complete medium, such as RPMI 1640 plus 20% human inactivated serum. Proliferative response of PBMC to allogeneic stimulation is determined in a two-way MLR performed in a 96-well microliter plate. […] At the conclusion of the incubation tritiated thymidine is added (for example, 1 μCi/well of 40 to 60 Ci/mmole) and proliferation determined by liquid scintillation counting. […]

smooth muscle cells = assay: smooth muscle proliferation stimulated by PDGF and IL-1; assay type: cell-based; conditions: drug added two hours prior to activation
Description: CT1501R and PTX were separately added to the cells two hours prior to activation with PDGF and IL-1.

Row | Compound | hair follicles, subjective histopathological examination [1] | proliferative response of PBMC to allogeneic stimulation [2] | inhibition of smooth muscle cell proliferation (smooth muscle cells)
1 | Nc1cc(N2CCCCC2)nc(N)[n+]1[O-] [minoxidil, reference compound] | fair response to treatment |  | 
2 | CC(=O)CCCCn1c(=O)c2c(ncn2C)n(C)c1=O [PTX, 1-(5-oxohexyl)-3,7-dimethylxanthine, reference compound] |  | showed dose-response activity | inhibited smooth muscle cell proliferation at the higher doses tested
